Source: patent publication US10251862B2, “Cosmetic composition containing hydroxy pyranone derivative compound for promoting differentiation of adipocytes” (AMOREPACIFIC CORPORATION, priority 2014, dated 2019)

Key:
[1] = system: Human adipose-derived mesenchymal stem cells (hAT-MSCs); test: Inducement of differentiation of adipose-derived mesenchymal stem cells into adipocytes (Oil Red O staining); assay type: cell-based; conditions: day 14
Description: Human adipose-derived mesenchymal stem cells (hAT-MSCs) were purchased form Lonza, Inc. (Walkersville, Md., USA) and cultured according to the instructions of Lonza, Inc. The adipose-derived mesenchymal stem cells were induced to differentiate into adipocytes according to the instructions of Lonza, Inc. except that troglitazone (TRO) was used instead of indomethacin. Specifically, the mesenchymal stem cells were differentiated into adipocytes by adding to a culture of the mesenchymal stem cells […] insulin, 1 µM dexamethasone (DEXA), 0.5 mM isobutylmethylxanthine (IBMX) and […] TRO. To a test group, the compound of Example 1 was added to the medium at a concentration of 30 μM when inducing the differentiation into adipocytes. A positive control group was treated with 30 μM glibenclamide together with IDX. On day 14 after the adipose-derived mesenchymal stem cells began to differentiate into adipocytes, the cells were washed with 10 mL of phosphate-buffered saline (PBS) and then fixed for 10 minutes using a 10% formalin/PBS solution (0.2 mL/cm^2). The fixed cells were washed once with a 60% isopropanol solution (0.5 mL/cm^2) and lipid bodies in the adipocytes were stained for 10 minutes with Oil Red O dissolved in 60% isopropanol (0.2 mL/cm^2). Then, after staining again with hematoxylin to visualize nuclei, the cells were observed under a microscope.

[2] = system: Adiponectin; test: Measurement of expression level of adiponectin in human adipose-derived mesenchymal stem cells (ELISA); assay type: cell-based; conditions: for effect of increasing adiponectin expression (in words): 60 μM with IDX, day 14, Table 1; for Adiponectin (pg/mL, avg ± S.D.): secreted into culture medium, day 14 of differentiation, together with IDX, sample 60 μM
Protocol: Adiponectin is a representative protein hormone secreted in adipocytes. It is reported that the expression of adiponectin is increased with the differentiation into adipocytes. Accordingly, the amount of adiponectin secreted into a cell culture medium was measured as a marker of promotion of adipocyte differentiation. In order to measure the secreted amount of adiponectin, human adipose-derived mesenchymal stem cells purchased form Lonza, Inc. were gathered on day 14 after they began to differentiate into adipocytes and the amount of adiponectin was quantified using an adiponectin ELISA kit (R&D Systems, Cat. No. DY1065) as follows (Data were normalized to that of the control group). Specifically, after reacting with a capture antibody on a 96-well plate and washing with a washing buffer, the cells were treated with a sample at a concentration of 60 μM and incubated at room temperature for 2 hours. Subsequently, the cells were incubated with a detection antibody, HRP, a substrate solution and a stop solution for the time specified in the protocol, while washing 3 times between each step. After the final incubation, absorbance was measured at 450 nm using a spectrophotometer.

Compound	differentiation into adipocytes as compared to treatment with IDX only ([1]; 30 μM added to medium when inducing differentiation, Oil Red O staining, microscope (FIG. 1))	number of the stained cells compared with glibenclamide as positive control ([1]; 30 μM, Oil Red O staining (FIG. 1))	effect of increasing adiponectin expression (in words) [2]	Adiponectin (pg/mL, avg ± S.D.) [2] [pg/mL]
O=C(/C=C/c1ccc2c(c1)OCO2)OCc1cc(=O)c(O)co1 [Example 1, (2E)-(5-hydroxy-4-oxo-4H-pyran-2-yl)methyl 3-(benzo[d][1,3]dioxo-6-yl)acrylate]	increased differentiation into adipocytes	slightly less	increased the expression of adiponectin	1435 ± 113
O=C(/C=C/c1ccc2c(c1)OCCO2)OCc1cc(=O)c(O)co1 [Example 2, (2E)-(5-hydroxy-4-oxo-4H-pyran-2-yl)methyl 3-(2,3-dihydroxybenzo[b][1,4]dioxo-7-yl)acrylate]	–	–	increased the expression of adiponectin	1300 ± 140
COc1ccc(Cl)cc1C(=O)NCCc1ccc(S(=O)(=O)NC(=O)NC2CCCCC2)cc1 [glibenclamide, reference compound]	–	–	–	1832 ± 110
O=c1cc(CO)occ1O [kojic acid, reference compound]	–	–	did not show an effect of increasing adiponectin expression	312 ± 103
